As usually defined, the inhibition is the change of the read-out against control, counted positive when it falls.

Results on 6 compounds are retold here after patent US20250092050A1, “1-AMINOBENZO[4,5]IMIDAZO[1,2-A]PYRAZINE-3-FORMAMIDE COMPOUND, AND PREPARATION THEREFOR AND USE THEREOF” (SUN YAT-SEN UNIVERSITY, priority 2022, published 2025).

Where two headings read alike, the source gives them in different places.

The target of the test is adenosine A2A receptor (Homo sapiens, UniProt P29274). Briefly: Binding to the adenosine A2A receptor: displacement of radioligand [3H]-ZM241385 from membrane protein. The settings on record: compound 10^-4 M, 1 nM [3H]-ZM241385. Here is the method: The specific process was as follows: A membrane protein solution (60 μg/tube, containing ADA 2 mg/mL) and a radioligand 1 nM [3H]-ZM241385 were added to each tube. Different compounds with the concentration of 10^−4 M were added into the compound tubes respectively, shaken to mix uniformly, incubated at 37° C. for 30 minutes and the reaction was terminated in a water bath. Free and bound ligands were separated by suction filtration under negative pressure using GF/C glass fiber filter paper, washed three times with precooled 50 mM Tris-HCl, about 4 mL each time. Film was removed and placed upside down on the tray (i.e., with the grid side facing up), and baked for 3 minutes until dried. Dried small circular filter membrane was put into the liquid scintillation tube in sequence, and 2 mL of scintillation solution was added. [3H] count was then performed in a Multifunction Liquid Scintillation Counter. Each junction point was provided with triple tubes. and the average value was taken. Finally. data analysis was carried out to calculate the inhibition rate of the compound on the adenosine AzA receptor: […]

[1] abbreviates: membrane protein 60 μg/tube, 37° C., 30 minutes, average of triple tubes, read-out: Adenosine A2A receptor inhibition rate.
[2] abbreviates: read-out: inhibition rate on adenosine A2A receptors (text summary of Table 1).

Sequence of adenosine A2A receptor (P29274 whole entry): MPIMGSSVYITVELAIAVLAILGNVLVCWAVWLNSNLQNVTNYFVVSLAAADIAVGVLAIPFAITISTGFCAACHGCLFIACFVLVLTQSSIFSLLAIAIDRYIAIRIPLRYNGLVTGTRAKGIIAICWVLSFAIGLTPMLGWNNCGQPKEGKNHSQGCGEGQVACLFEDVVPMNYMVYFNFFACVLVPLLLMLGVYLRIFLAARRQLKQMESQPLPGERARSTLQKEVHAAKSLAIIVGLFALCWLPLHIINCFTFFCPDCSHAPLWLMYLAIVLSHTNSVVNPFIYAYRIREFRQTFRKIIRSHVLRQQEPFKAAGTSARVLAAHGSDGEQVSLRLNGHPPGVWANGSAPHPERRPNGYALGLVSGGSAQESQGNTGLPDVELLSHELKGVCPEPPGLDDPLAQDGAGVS

Regarding `CCCCCNC(=O)c1cn2c(nc3ccccc32)c(N)n1` [Compound 14b], the inhibition at 100 µM under setting [1] turned out to be 71 ± 4.02%. As for `Nc1nc(C(=O)NCCO)cn2c1nc1ccccc12` [Compound 14f], the inhibition at 100 µM under setting [1] worked out at 65.6 ± 4.23%. Regarding `CC(NC(=O)c1cn2c(nc3ccccc32)c(N)n1)c1ccccn1` (stereo not drawn) [Compound 14u], the inhibition at 100 µM runs as follows: under setting [1], 86.5 ± 1.02%; under setting [2], more than 80%. In the case of `CC(NC(=O)c1cn2c(nc3ccccc32)c(N)n1)c1cccc2cccnc12` (stereo not drawn) [Compound 14v], the inhibition at 100 µM under setting [1] came out at 61.6 ± 3.91%. Regarding `CC(NC(=O)c1cn2c(nc3ccccc32)c(N)n1)c1cccc2cccnc12` (stereo not drawn) [Compound 14w], where the note is “membrane protein 60 μg/tube, 37° C., 30 minutes, average of triple tubes”, the “Adenosine A2A receptor inhibition rate” value was 78.27 ± 2.31%. Moreover, the inhibition at 100 µM under setting [2] is more than 70%. `CC(C)(NC(=O)c1cn2c(nc3ccccc32)c(N)n1)c1ccccn1` [Compound 14x]: the inhibition at 100 µM by setting is: under setting [1], 75.3 ± 4.07%; under setting [2], more than 70%.
